Experimental findings from PMC7744367 (European journal of medicinal chemistry, 2020) are described below.

The subject of data set [1] is CQR Dd2 strain of P. falciparum. Kind of data set: microbe, parasite or virus in culture. The data set is classed as cell-based.
In another data set the test system is CQS 3D7 strain. In words: In vitro antiplasmodial activity, SYBR Green I-based fluorescent assay. Type of data set: cell-based, P. falciparum. The following applies: Plasmodium falciparum, 3D7, 72 h, read-out: Antiplasmodial activity EC50 3D7.
A further data set is described as follows: in vitro. The following applies: human.
The subject of data set [2] is tightly synchronized P. falciparum Dd2 cultures. In words: Stage specific action assay. The data set is classed as cell-based. The following applies: 5 × EC50, synchronized Dd2, late schizont/segmenters.
For data set [3], the system named is P. falciparum Dd2 asynchronous cultures. In words: In vitro killing profile assay. Type of data set: cell-based. The following applies: 5 × EC50, Dd2, compound washed out, growth monitored 96 h.
Setting [4] is: Plasmodium falciparum, DD2, 72 h, read-out: Antiplasmodial activity EC50 Dd2, CQR Dd2 strain, 72 h incubation, at least three independent experiments.

Where two headings read alike, the source gives them in different places.

With `O=C1c2ccccc2C(=O)N1Cc1cn(-c2cc(/C=C/c3ccncc3)nc3ccc(Cl)cc23)nn1` [compound 32, (E)-2-((1-(6-chloro-2-(2-(pyridin-4-yl)vinyl)quinolin-4-yl)-1H-1,2,3-triazol-4-yl)methyl)isoindoline-1,3-dione], the concentration giving a half-maximal response (EC50) in data set [1] (setting [4]) is above 8 µM.
With `CN1CCN(Cc2cn(-c3cc(/C=C/c4ccncc4)nc4ccc(Cl)cc34)nn2)CC1` [compound 29, (E)-6-chloro-4-(4-((4-methylpiperazin-1-yl)methyl)-1H-1,2,3-triazol-1-yl)-2-(2-(pyridin-4-yl)vinyl)quinoline], the EC50 in data set [1] (setting [4]) is above 8 µM.
On to `Clc1ccc2nc(/C=C/c3ccncc3)cc(NCCn3cc(CN4CCOCC4)nn3)c2c1` [compound 53, (E)-6-chloro-N-(2-(4-(morpholinomethyl)-1H-1,2,3-triazol-1-yl)ethyl)-2-(2-(pyridin-4-yl)vinyl)quinolin-4-amine], for which the “fold improved activity over analogue 28” value in data set [1] (Dd2 EC50 ratio) was “above 5 fold”.
“(E)-2-((1-(4-((6-chloro-2-styrylquinolin-4-yl)amino)butyl)-1H-1,2,3-triazol-4-yl)methyl)isoindoline-1,3-dione [compound 64]”: the concentration giving a half-maximal response (EC50) in data set [1] (read-out: Antiplasmodial activity EC50 Dd2, CQR Dd2 strain, 72 h incubation, at least three independent experiments) amounted to 1 ± 0.18 µM.
In the case of `O=C1c2ccccc2C(=O)N1Cc1cn(CCNc2cc(/C=C/c3ccncc3)nc3ccc(Cl)cc23)nn1` [compound 57, (E)-2-((1-(2-((6-chloro-2-(2-(pyridin-4-yl)vinyl)quinolin-4-yl)amino)ethyl)-1H-1,2,3-triazol-4-yl)methyl)isoindoline-1,3-dione], the “fold more potent than compound 32” value in data set [1] (Dd2 EC50 ratio) was around 8 fold.
Take `CCN(CC)CCCC(C)Nc1ccnc2cc(Cl)ccc12` (centres unmarked) [CQ, chloroquine]: the EC50 in the data set on CQS 3D7 strain is 0.02 ± 0.01 µM; in data set [1] (Plasmodium falciparum, DD2, 72 h, read-out: Antiplasmodial activity EC50 Dd2), 0.17 ± 0.02 µM. In “in vitro”, this compound yielded a concentration for a half-maximal effect (EC50) at 48 h of 10.4 ± 0.86 µM.
Turning to `Clc1ccc2nc(/C=C/c3ccncc3)cc(NCCCCn3cc(CN4CCCCC4)nn3)c2c1` [compound 60, (E)-6-chloro-N-(4-(4-(piperidin-1-ylmethyl)-1H-1,2,3-triazol-1-yl)butyl)-2-(2-(pyridin-4-yl)vinyl)quinolin-4-amine], the “effect on intraerythrocytic development, compound added at 42 h” value in data set [2] is “did not affect the schizont maturation and reinvasion of new merozoites”. For the same compound, the “parasite viability after 24 and 48 h exposure” value in data set [3] was “complete loss of parasite viability”.
For `Clc1ccc2nc(/C=C/c3ccncc3)cc(-n3cc(CN4CCOCC4)nn3)c2c1` [compound 28, (E)-4-((1-(6-chloro-2-(2-(pyridin-4-yl)vinyl)quinolin-4-yl)-1H-1,2,3-triazol-4-yl)-methyl)morpholine], the EC50 in data set [1] (setting [4]) was above 8 µM.

The term EC50 denotes the concentration giving half of the maximal effect.
